A word on the IC50: it is the concentration that inhibits the measured activity by half.

We go through ten compounds from article PMC3457657 (Medicinal chemistry research : an international journal for …, 2011).

The subject of data set [1] is P. falciparum chloroquine-resistant strain (W2, Indo China). In words: In vitro antimalarial activity, plasmodial LDH activity. Type of data set: cell-based, Plasmodium falciparum. To be noted: chloroquine-resistant strain W2, 72 h.
For data set [2] the following is noted: ref Mikaye et al., 2009; Ishikawa et al., 1984; Li et al., 2006; cited from earlier work.
The test system of data set [3] is P. falciparum chloroquine-sensitive strain (D6, Sierra Leone). The data set can be described thus: In vitro antimalarial activity, plasmodial LDH activity. Type of data set: cell-based, Plasmodium falciparum. The settings on record: chloroquine-sensitive strain D6, 72 h.
For data set [4], the system named is Staphylococcus aureus ATCC 29213. In words: In vitro antimicrobial. Type of data set: cell-based. To be noted: ATCC29213, read-out: IC50 Antibacterial S. aureus.
Data set [5] has as its system mouse skin tumor promotion. To be noted: two-stage carcinogenesis; ref Mikaye et al., 2010; cited from earlier work.
Data set [6] concerns Cryptococcus neoformans ATCC 90113. In words: In vitro antimicrobial. It is filed as cell-based. To be noted: ATCC90113, read-out: IC50 Antifungal C. neoformans.
The test system of data set [7] is methicillin-resistant S. aureus ATCC 33591 (MRS). In words: In vitro antimicrobial. It is filed as cell-based. To be noted: Staphylococcus aureus, ATCC33591, read-out: IC50 Antibacterial MRS.
For data set [8] the following is noted: ref Fujimoto et al. 1999; cited from earlier work.
The subject of another data set is S. aureus. To be noted: ref Desbois et al., 2008; cited from earlier work.
The subject of data set [9] is sex cells of the sea urchin Strongylocentrotus intermedius. The settings on record: at a concentration of 0.5 mg/l; ref Smetanina et al., 2007; cited from earlier work.
For data set [10], the system named is visceral and cutaneous leishmaniasis. To be noted: oral drug, ref Berman, 2008; cited from earlier work.
For data set [11] the following is noted: ref Vesonder et al., 1988; cited from earlier work.
For data set [12] the following is noted: ref Vesonder et al., 1988; cited from earlier work. This is another data set of the same source.
For data set [13] the following is noted: ref Mori et al., 1984; cited from earlier work.
The conditions of data set [14]: ref Ali et al., 1989; cited from earlier work.
The next data set relates to HeLa cells. To be noted: cited from earlier work.
Data set [15] concerns mitochondrial respiration. To be noted: ref Kawai et al., 1986; cited from earlier work.

Read-outs that look alike come from different tables or passages of the source. Bounds are passed on as bounds.

Turning to `CCC/C=C/c1cc2c(C=O)c(O)c(CC=C(C)C)cc2o1` [Compound 6, 2-(2′,3-epoxy-1′,3′-heptadienyl)-6-hydroxy-5-(3-methyl-2-butenyl)benzaldehyde], in data set [1], the “IC50 Antimalarial P. falciparum W2” value is “inactive”. Besides, in data set [2], the “antioxidant activity and radical scavenging activity against DPPH” value is “antioxidant activity and radical scavenging activity”. The “IC50 Antimalarial P. falciparum D6” value in data set [3] is “inactive”.
Consider `C/C=C/C=C/C=C/c1c(O)cc(CC=C(C)C)c(O)c1C=O` [Compound 5, auroglaucin], for which the IC50 in data set [4], in data set [6] and in [7] was above 20 µg/mL in each case. Besides, in data set [5], the “inhibition of mouse skin tumor promotion” value is given as “inhibited”. The “antioxidant activity and radical scavenging activity against DPPH” value in [2] is “antioxidant activity and radical scavenging activity”.
With `Cc1c(O)cc(O)c2c1COC2=O` [Compound 8, 5,7-dihydroxy-4-methylphthalide], the IC50 in data set [4] and in data set [7] was above 20 µg/mL each time. Also, in data set [8], the immunosuppressive activity result is listed as “immunosuppressive activity”.
For `CCCCCC/C=C\CCCCCCCC(=O)O` [(9Z)-hexadecenoic acid], the “potency against S. aureus relative to (6Z, 9Z, 12Z)-hexadecatrienoic acid (HTA)” value in the data set on S. aureus is “about twice as much”.
For `CCCCC/C=C/c1c(O)cc(CC=C(C)C)c(O)c1C=O` [Compound 3, tetrahydroauroglaucin], the “cytotoxic activity against sex cells of the sea urchin” value in data set [9] is recorded as “cytotoxic activity”. For the same compound, in [5], the “inhibition of mouse skin tumor promotion” value is “inhibited”. In addition, the concentration for half-maximal inhibition (IC50) in [6] and in data set [7] was above 20 µg/mL in each case. The “antioxidant activity and radical scavenging activity against DPPH” value in data set [2] was “antioxidant activity and radical scavenging activity”.
Regarding `CCCCCCCCCCCCCCCCOP(=O)([O-])OCC[N+](C)(C)C` [Miltefosine], the cure rates entry in [10] is reported as “about 98%”.
As to `CCC/C=C/C=C/c1c(O)cc(CC=C(C)C)c(O)c1C=O` [Compound 4, dihydroauroglaucin], the IC50 in [4], in [6] and in data set [7] was above 20 µg/mL in each case. In addition, in data set [5], the “inhibition of mouse skin tumor promotion” value is recorded as “inhibited”. Further, the “IC50 Antimalarial P. falciparum W2” value in data set [1] is “inactive”. In data set [2], the “antioxidant activity and radical scavenging activity against DPPH” value was “antioxidant activity and radical scavenging activity”. Besides, in data set [3], the “IC50 Antimalarial P. falciparum D6” value is “inactive”.
In the case of `CCCCC/C=C/c1c(O)cc(CC=C(C)C)c(O)c1CO` [Compound 1, (E)-2-(hept-1-enyl)-3-(hydroxymethyl)-5-(3-methylbut-2-enyl)benzene-1,4-diol], the IC50 in data set [4] and in data set [6] was above 20 µg/mL in each case.
For `C=CC(C)(C)c1[nH]c2c(CC=C(C)C)cc(CC=C(C)C)cc2c1C[C@@H]1NC(=O)[C@H](C)NC1=O` [Compound 7, echinulin], the “concentration in the water causing drinking refusal in mice” value in data set [11] was 90000 ng/mL. Further, the half-inhibitory concentration (IC50) in [4], in [6] and in [7] was above 20 µg/mL each time. Besides, in [12], the “concentration in food that swine refused to eat” value was 8 ng/mL. Further, in data set [13], the genotoxicity entry is given as “not genotoxic”. Further, the “organ damage (alveolar, liver)” value in data set [14] is “severe damage of alveolar organization and thickening of alveolar walls and liver damage”. The “cytotoxicity to HeLa cells” value in the data set with HeLa cells (at the concentration of 100 mg/l, ref Umeda et al., 1974, Wang et al., 2006) was “cytotoxicity”.
`CCCCCCCc1c(O)cc(CC=C(C)C)c(O)c1C=O` [Compound 2, flavoglaucin]: the “inhibition of mouse skin tumor promotion” value in data set [5] was “inhibited”. For the same compound, in data set [6], the IC50 was above 20 µg/mL. The “antioxidant activity and radical scavenging activity against DPPH” value in data set [2] was “antioxidant activity and radical scavenging activity”. In data set [15], the mitochondrial respiration result is given as “inhibited mitochondrial respiration” and the mitochondrial swelling entry was “induced mitochondrial swelling”. The “cytotoxicity to HeLa cells” value in the data set on HeLa cells is “cytotoxic”.
